This passage reports IC50 and Ki results from ChEMBL document CHEMBL1909046, “DrugMatrix in vitro pharmacology data”.

Experiment [1] deals with T1, C-X-C chemokine receptor type 2 (Homo sapiens, UniProt P25025).
T1 sequence (P25025 whole entry): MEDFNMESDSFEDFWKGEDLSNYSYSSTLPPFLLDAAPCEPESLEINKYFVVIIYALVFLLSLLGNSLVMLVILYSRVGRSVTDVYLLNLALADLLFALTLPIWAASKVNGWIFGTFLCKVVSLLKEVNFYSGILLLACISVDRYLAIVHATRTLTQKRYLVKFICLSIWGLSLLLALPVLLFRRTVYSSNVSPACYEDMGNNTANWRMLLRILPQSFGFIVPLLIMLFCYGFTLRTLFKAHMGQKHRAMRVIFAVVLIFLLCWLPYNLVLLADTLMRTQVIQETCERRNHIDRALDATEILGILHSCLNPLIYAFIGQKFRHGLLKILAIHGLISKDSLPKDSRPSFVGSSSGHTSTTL
The class given is cell membranes, Membrane. The settings on record: cho-k1.

The target of experiment [2] is Tyrosine-protein kinase Lck (Homo sapiens, UniProt P06239). In words: DRUGMATRIX: Protein Tyrosine Kinase, LCK enzyme inhibition (substrate: Poly(Glu:Tyr)). The class given is cell-based, Insect cells. As to conditions: insect cells; Not Active = under 50% inhibition at 10 µM.
Tyrosine-protein kinase Lck, sequence (P06239 whole entry): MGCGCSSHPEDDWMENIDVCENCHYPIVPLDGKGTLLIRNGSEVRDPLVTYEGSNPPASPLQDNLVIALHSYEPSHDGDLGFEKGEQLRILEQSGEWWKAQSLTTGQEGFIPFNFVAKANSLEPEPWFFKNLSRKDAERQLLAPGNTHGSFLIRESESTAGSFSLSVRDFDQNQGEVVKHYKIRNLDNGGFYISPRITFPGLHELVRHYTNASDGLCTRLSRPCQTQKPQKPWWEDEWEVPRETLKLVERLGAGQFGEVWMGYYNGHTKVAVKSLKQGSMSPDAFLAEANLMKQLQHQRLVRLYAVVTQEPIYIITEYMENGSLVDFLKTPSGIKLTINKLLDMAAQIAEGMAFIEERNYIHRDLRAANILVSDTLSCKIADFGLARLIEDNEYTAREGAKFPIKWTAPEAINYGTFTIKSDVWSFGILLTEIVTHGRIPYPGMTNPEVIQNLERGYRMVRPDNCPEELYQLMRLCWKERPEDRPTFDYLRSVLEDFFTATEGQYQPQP
The target in experiment [3] is T2, Muscarinic acetylcholine receptor M2 (Homo sapiens, UniProt P08172). Further: in other assays of this panel Not Active means under 50% inhibition at 10 µM.
T2 sequence (P08172 whole entry): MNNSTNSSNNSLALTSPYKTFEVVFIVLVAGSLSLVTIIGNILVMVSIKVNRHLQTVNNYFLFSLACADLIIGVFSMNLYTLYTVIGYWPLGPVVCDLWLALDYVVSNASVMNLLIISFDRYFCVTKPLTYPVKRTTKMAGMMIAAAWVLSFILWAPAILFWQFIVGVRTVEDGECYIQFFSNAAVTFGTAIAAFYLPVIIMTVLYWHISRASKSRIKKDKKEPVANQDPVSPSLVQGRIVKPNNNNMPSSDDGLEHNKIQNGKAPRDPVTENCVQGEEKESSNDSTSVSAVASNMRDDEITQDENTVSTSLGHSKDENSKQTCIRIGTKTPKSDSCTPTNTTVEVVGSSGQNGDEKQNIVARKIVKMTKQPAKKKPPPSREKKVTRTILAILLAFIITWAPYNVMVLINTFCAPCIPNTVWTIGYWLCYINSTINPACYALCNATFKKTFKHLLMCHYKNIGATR
The class given is cell membranes, CHO-K1, Membrane. As to conditions: cho-k1.

Experiment [4] deals with Tyrosine-protein kinase Fyn (Homo sapiens, UniProt P06241). Nature of the experiment: biochemical. The class given is cell-based, Insect cells. As to conditions: insect cells.
Tyrosine-protein kinase Fyn, sequence (P06241 whole entry): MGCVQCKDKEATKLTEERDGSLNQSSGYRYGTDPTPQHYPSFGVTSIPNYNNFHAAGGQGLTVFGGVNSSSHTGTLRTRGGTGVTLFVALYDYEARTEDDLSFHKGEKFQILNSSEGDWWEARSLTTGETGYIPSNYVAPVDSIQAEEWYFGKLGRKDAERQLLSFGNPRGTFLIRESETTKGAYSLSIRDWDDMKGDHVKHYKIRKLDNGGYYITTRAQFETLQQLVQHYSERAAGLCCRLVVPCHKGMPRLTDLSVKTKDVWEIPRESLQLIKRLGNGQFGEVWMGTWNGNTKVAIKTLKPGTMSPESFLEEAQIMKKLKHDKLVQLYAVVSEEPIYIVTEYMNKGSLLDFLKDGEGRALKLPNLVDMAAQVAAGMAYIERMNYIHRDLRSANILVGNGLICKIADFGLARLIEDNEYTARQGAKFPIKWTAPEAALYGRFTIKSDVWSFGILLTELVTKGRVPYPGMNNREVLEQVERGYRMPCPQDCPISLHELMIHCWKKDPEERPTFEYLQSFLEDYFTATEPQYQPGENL
In experiment [5] the target is Beta-1 adrenergic receptor (Homo sapiens, UniProt P08588). In words: DRUGMATRIX: Adrenergic beta1 radioligand binding (ligand: [125I] Cyanopindolol). The class given is cell membranes, CHO-K1, Membrane. As to conditions: cho-k1; Not Active = under 50% inhibition at 10 µM.
Beta-1 adrenergic receptor, sequence (P08588 whole entry): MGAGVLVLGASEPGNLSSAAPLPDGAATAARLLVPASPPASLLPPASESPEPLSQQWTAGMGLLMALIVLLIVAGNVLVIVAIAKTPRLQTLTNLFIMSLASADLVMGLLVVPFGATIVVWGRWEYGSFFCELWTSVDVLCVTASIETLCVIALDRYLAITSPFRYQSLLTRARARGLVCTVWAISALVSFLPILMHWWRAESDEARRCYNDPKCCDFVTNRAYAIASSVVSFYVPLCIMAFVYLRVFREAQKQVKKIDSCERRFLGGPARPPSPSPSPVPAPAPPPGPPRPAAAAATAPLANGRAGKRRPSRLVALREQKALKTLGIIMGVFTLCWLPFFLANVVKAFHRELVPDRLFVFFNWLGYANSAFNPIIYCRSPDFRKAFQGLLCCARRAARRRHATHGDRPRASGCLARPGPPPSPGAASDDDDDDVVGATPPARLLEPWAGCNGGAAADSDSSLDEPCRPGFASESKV
For a further experiment, the target named is D(3) dopamine receptor (Homo sapiens, UniProt P35462). Nature of the experiment: DRUGMATRIX: Dopamine D3 radioligand binding (ligand: [3H] Spiperone). It is filed as cell membranes, CHO, Membrane. As to conditions: cho.
D(3) dopamine receptor, sequence (P35462 whole entry): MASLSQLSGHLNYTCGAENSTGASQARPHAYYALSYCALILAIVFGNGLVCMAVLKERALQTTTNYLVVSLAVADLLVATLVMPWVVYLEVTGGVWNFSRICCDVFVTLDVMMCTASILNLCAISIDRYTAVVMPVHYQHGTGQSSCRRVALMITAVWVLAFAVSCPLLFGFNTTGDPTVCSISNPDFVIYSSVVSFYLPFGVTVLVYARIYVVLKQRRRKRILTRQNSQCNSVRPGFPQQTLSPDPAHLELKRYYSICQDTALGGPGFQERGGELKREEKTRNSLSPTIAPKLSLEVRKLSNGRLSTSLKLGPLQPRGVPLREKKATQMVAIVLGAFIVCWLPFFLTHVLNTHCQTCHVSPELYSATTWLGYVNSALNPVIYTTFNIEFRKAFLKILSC
The target in experiment [6] is T3, Cholecystokinin receptor type A (Homo sapiens, UniProt P32238). Further: in other assays of this panel Not Active means under 50% inhibition at 10 µM.
T3 sequence (P32238 whole entry): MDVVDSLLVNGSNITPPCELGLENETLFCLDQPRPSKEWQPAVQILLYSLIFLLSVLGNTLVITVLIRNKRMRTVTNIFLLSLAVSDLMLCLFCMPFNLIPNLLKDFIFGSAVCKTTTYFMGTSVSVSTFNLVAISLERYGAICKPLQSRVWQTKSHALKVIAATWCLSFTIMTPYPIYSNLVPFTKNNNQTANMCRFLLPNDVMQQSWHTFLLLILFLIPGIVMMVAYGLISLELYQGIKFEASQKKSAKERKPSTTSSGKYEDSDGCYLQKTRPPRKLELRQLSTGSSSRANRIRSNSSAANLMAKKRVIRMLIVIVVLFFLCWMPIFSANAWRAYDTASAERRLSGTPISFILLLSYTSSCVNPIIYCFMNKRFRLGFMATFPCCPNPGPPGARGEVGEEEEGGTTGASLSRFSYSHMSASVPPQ
It is filed as cell membranes, Membrane. As to conditions: 1321-n1.

Experiment [7] in a line: DRUGMATRIX: Tumor Necrosis Factor (TNF), Non-Selective radioligand binding (ligand: [125I] TNF-alpha). It is filed as cell membranes, Membrane. The settings on record: u-937; Not Active = under 50% inhibition at 10 µM.
Experiment [8] can be described thus: DRUGMATRIX: Phosphodiesterase PDE4 enzyme inhibition (substrate: [3H]cAMP + cAMP). The settings on record: u-937, Not Active = under 50% inhibition at 10 µM.
Experiment [9] deals with T4, Nitric oxide synthase, inducible (Mus musculus, UniProt P29477).
T4 sequence (P29477 whole entry): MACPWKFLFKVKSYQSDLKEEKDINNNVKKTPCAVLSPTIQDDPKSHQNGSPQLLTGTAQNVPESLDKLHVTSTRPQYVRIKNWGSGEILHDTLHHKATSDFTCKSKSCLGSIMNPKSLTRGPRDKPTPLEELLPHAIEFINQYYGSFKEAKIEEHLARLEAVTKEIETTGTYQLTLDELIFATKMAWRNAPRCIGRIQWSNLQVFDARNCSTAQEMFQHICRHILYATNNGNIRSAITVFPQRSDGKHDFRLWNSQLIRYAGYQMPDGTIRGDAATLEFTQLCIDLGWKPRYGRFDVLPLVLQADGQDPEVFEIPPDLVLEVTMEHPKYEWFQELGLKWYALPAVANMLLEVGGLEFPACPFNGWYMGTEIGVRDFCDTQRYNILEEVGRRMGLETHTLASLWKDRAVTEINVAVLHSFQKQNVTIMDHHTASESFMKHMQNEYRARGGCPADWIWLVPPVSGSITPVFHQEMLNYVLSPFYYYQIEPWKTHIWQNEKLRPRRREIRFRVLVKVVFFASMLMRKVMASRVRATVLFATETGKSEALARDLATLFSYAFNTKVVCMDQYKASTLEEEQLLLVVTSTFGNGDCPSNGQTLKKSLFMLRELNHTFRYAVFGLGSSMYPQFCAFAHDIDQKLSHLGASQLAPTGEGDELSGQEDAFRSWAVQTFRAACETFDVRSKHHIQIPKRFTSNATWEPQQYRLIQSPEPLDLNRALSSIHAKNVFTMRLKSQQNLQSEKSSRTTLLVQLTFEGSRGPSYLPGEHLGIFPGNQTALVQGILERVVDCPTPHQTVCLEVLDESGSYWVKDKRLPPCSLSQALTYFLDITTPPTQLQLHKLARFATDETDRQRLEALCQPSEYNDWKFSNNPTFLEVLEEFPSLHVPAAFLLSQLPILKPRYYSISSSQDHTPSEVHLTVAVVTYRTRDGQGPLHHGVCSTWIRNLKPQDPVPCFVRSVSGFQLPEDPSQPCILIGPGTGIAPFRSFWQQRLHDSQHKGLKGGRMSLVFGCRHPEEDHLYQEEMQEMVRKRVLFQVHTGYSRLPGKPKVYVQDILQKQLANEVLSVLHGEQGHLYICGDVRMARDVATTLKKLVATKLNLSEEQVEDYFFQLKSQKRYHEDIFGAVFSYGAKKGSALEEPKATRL
Set-up: species or system Escherichia coli.

What is called IC50 is the point on the concentration scale where inhibition reaches its midpoint. In the case of `Clc1ccc(C(c2ccccc2Cl)C(Cl)Cl)cc1` (stereo unspecified) [MITOTANE], the IC50 entry (in experiment [1]; in [2]; in experiment [3]; in [4]; in [5]; at D(3) dopamine receptor) was “Not Active” each time. Moreover, the IC50 entry in experiment [6], in experiment [7], in experiment [8] and in experiment [9] was “Not Active” in each case. Moreover, the Ki result in [7] and in experiment [8] was “Not Active” throughout.

As to `COc1c(C)c2c(c(O)c1C/C=C(\C)CCC(=O)OCCN1CCOCC1)C(=O)OC2` [MYCOPHENOLATE MOFETIL], the IC50 entry (in [1]; in experiment [2]; in [3]; in experiment [4]; in experiment [5]; at D(3) dopamine receptor) was “Not Active” each time. Moreover, the IC50 entry in [6], in experiment [7], in experiment [8] and in [9] was “Not Active” each time. Also, the Ki result in experiment [7] and in experiment [8] was “Not Active” each time.

As for `COC(=O)C1=C(C)NC(C)=C(C(=O)OC)C1c1ccccc1[N+](=O)[O-]` [NIFEDIPINE], the IC50 result (in [1]; in [2]; in experiment [3]; in experiment [4]; in experiment [5]; at D(3) dopamine receptor) was “Not Active” throughout. Further, the IC50 entry in experiment [6] is “Not Active”; in [7] it was “Not Active”; in experiment [8] (read-out: IC50), 44.2 µM; in experiment [9] it was “Not Active”. Besides, the Ki result in experiment [7] is recorded as “Not Active”.

Take `NNc1ccccc1` [PHENYLHYDRAZINE]: the IC50 result (in experiment [1]; in [2]; in experiment [3]; in experiment [4]; in [5]; at D(3) dopamine receptor) was “Not Active” each time. Besides, the IC50 entry in experiment [6], in experiment [7], in [8] and in experiment [9] was “Not Active” in each case. For the same compound, the Ki entry in [7] and in experiment [8] was “Not Active” in each case.

As to `CC(=O)[C@H]1CC[C@H]2[C@@H]3CCC4=CC(=O)CC[C@]4(C)[C@H]3CC[C@]12C` [PROGESTERONE], the IC50 entry (in [1]; in experiment [2]; in experiment [3]; in experiment [4]; in experiment [5]; at D(3) dopamine receptor) was “Not Active” each time. Also, the IC50 result in [6], in experiment [7], in experiment [8] and in experiment [9] was “Not Active” throughout. The Ki result in experiment [7] and in experiment [8] was “Not Active” each time.

On to `NC(=O)c1ncn([C@@H]2O[C@H](CO)[C@@H](O)[C@H]2O)n1` [RIBAVIRIN], for which the concentration for half-maximal inhibition (IC50) result (in experiment [1]; in [2]; in experiment [3]; in experiment [4]; in experiment [5]; on D(3) dopamine receptor) was “Not Active” each time. Moreover, the concentration for half-maximal inhibition (IC50) entry in [6], in experiment [7], in experiment [8] and in experiment [9] was “Not Active” throughout. Also, the Ki entry in experiment [7] and in [8] was “Not Active” throughout.

`O=[N+]([O-])c1cc([As](=O)(O)O)ccc1O` [ROXARSONE]: the concentration for half-maximal inhibition (IC50) result (in [1]; in [2]; in [3]; in experiment [4]; in experiment [5]; on D(3) dopamine receptor) was “Not Active” throughout. The IC50 result in [6], in [7], in experiment [8] and in experiment [9] was “Not Active” throughout. In addition, the Ki entry (in experiment [1]; in experiment [2]; in [3]; in experiment [4]; in experiment [5]; on D(3) dopamine receptor) was “Not Active” in each case. Besides, the Ki result in experiment [6], in experiment [7], in experiment [8] and in experiment [9] was “Not Active” in each case.
